Values joined by “and” are separate entries in the source; they are usually repeats but may differ in a detail not shown here. Equal entries are not always repeated. Where two headings read alike, the source gives them in different places.
Columns and labels:
Type in all cases: binding
Brd3(BD1) = Brd3(BD1) (Homo sapiens, UniProt Q15059); assay: HTRF BET selectivity profile, Brd3(BD1); set-up: GST tagged bromodomain proteins were purchased from BPS Bioscience; purchased BPS Bioscience; details: for Ratio 3-1 vs 3-2: selectivity Brd3(BD1) vs Brd3(BD2), HTRF IC50
Chain of Brd3(BD1) (Q15059 34-140 limits assumed): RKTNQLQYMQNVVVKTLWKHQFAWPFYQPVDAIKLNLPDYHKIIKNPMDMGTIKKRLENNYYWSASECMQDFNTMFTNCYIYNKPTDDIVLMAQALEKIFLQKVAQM
Protocol: (§1) HTRF assays were performed in white 384 Well Small Volume™ HiBase Polystyrene Microplates (Greiner) with a total working volume of 20 μL. Compounds were dispensed, with 100 nL per well (0.5% final DMSO), from a concentration stock of 10 mM in 100% DMSO and with serial DMSO dilutions, using an Echo® 550 robot from the Access Labcyte platform (Labcyte) and based on the transfer of liquid by acoustic wave. Then, 19.5 μL of buffer is added, using a Multidrop Combi (Thermo Fisher Scientific). […] All HTRF reagents (donor and acceptor) were purchased from CisBio Bioassays and reconstituted according to the supplier protocols. The peptide was purchased from Genic Bio Synthetic. The BRD4(1) protein was produced and purified in the laboratory.
(§2) Percentage of inhibition was calculated using the following equation: % inhibition=[(compound signal)−(min signal)]/[(max signal)−(min signal)]*100, where ‘max signal’ is the signal ratio with the compound vehicle alone (DMSO) and ‘min signal’ the signal ratio without peptide.
(§3) Selectivity profiles of bromodomain inhibitors were performed as described in HTRF screen section. […] HTRF detection reagents (EPIgeneous™ Binding Domain kits) were purchased from Cisbio Bioassays and used according to supplier's protocol. GST tagged bromodomain proteins were purchased from BPS Bioscience and histone peptide from Genic Bio Synthetic.

Brdt(BD1) = molecular target: T1, Brdt(BD1) (Homo sapiens, UniProt Q58F21); assay: HTRF BET selectivity profile, Brdt(BD1)
T1 construct: GST tagged bromodomain proteins were purchased from BPS Bioscience; purchased BPS Bioscience
Protocol: (§4) HTRF assays were performed in white 384 Well Small Volume™ HiBase Polystyrene Microplates (Greiner) with a total working volume of 20 μL. Compounds were dispensed, with 100 nL per well (0.5% final DMSO), from a concentration stock of 10 mM in 100% DMSO and with serial DMSO dilutions, using an Echo® 550 robot from the Access Labcyte platform (Labcyte) and based on the transfer of liquid by acoustic wave. Then, 19.5 μL of buffer is added, using a Multidrop Combi (Thermo Fisher Scientific). Finally, for each assay, 200 nL of master mix (protein+donor+acceptor) and 200 nL of peptide Is added in the assay wells according to the final concentration and buffer described in Table 3, using the Echo® 550 robot (Labcyte). The IC50 measurements were performed in triplicates (Table 2 and 3). All HTRF reagents (donor and acceptor) were purchased from CisBio Bioassays and reconstituted according to the supplier protocols. The peptide was purchased from Genic Bio Synthetic. The BRD4(1) protein was produced and purified in the laboratory. HTRF signals were measured, after a final incubation (3 h or 6 h or overnight at room temperature or 4° C., according to the bromodomain), using a PHERAstar FS (BMG Labtech) with an excitation filter at 337 nm and fluorescence wavelength measurement at 620 and 665 nm, an integration delay of 60 μs and an integration time of 500 μs. Results were analyzed with a two-wavelengths signal ratio: [intensity (665 nm)/intensity (620 nm)]*104.
as §2, §3

Brd2(BD2) = molecular target: T2, Brd2(BD2) (Homo sapiens, UniProt P25440); assay: HTRF BET selectivity profile, Brd2(BD2)
T2 construct: GST tagged bromodomain proteins were purchased from BPS Bioscience; purchased BPS Bioscience
T2 sequence (P25440 344-453 limits assumed): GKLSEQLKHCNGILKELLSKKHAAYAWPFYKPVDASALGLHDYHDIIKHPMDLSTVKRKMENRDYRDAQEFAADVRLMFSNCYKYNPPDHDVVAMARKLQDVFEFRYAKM
Protocol: as §1, §2, §3

BRD4(BD1) [1] = molecular target: T3, BRD4(BD1) (Homo sapiens, UniProt O60885); assay: Isothermal Titration Calorimetry; details: ITC; read-out: Binding affinity (Kd) to BRD4(1) by Isothermal Titration Calorimetry
Protocol: FIG. 1. Isothermal Titration Calorimetry (ITC) of 43c. Thermogram (top) and non-linear least squares fit model of the integrated data (bottom) at 15° C. of Brd4 (BD1) […] as a function of the molar ratio of ligand to the protein.
ITC was used to evaluate the thermodynamics parameters of the binding between BRD4 (BD1) and the selected compounds. Titrations were carried out on a MicroCal ITC200 microcalorimeter (GE Healthcare, Piscataway, N.J.). Each experiment was designed using a titrant concentration (protein in the syringe generally between 100 and 400 μM) set 10 to 15 times the analyte concentration (compound in the cell generally between 10 and 40 μM) and using 13 injections at 25° C. A first small injection (generally 0.2 μL) was included in the titration protocol in order to remove air bubbles trapped in the syringe prior titration. Raw data were scaled after setting the zero to the titration saturation heat value. Integrated raw ITC data were fitted to a one site non-linear least squares fit model using the MicroCal Origin plugin as implemented in Origin 7 (Origin Lab). Finally, ΔG and TΔS values were calculated from the fitted ΔH and KA values using the equations ΔG=−R.T.inKA and ΔG=ΔH−TΔS.

BRD4(BD1) [2] = molecular target: T3, BRD4(BD1); assay: HTRF assay, BRD4(BD1)/histone peptide interaction; set-up: made in house; details: for IC50: HTRF; for Ratio 4-1 vs 4-2: selectivity Brd4(BD1) vs Brd4(BD2), HTRF IC50
Protocol: as §1, §2, §3

Brd2(BD1) = molecular target: T4, Brd2(BD1) (Homo sapiens, UniProt P25440); assay: HTRF BET selectivity profile, Brd2(BD1); details: for Ratio 2-1 vs 2-2: selectivity Brd2(BD1) vs Brd2(BD2), HTRF IC50
T4 construct: GST tagged bromodomain proteins were purchased from BPS Bioscience; purchased BPS Bioscience
T4 sequence (P25440 74-180 limits assumed): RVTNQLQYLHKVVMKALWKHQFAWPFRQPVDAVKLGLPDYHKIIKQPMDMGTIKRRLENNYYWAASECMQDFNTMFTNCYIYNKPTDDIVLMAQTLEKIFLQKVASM
Protocol: as §1, §2, §3

Brd4(BD2) = molecular target: T5, Brd4(BD2) (Homo sapiens, UniProt O60885); assay: HTRF BET selectivity profile, Brd4(BD2)
T5 construct: GST tagged bromodomain proteins were purchased from BPS Bioscience; purchased BPS Bioscience
Protocol: as §4, §2, §3

Brd3(BD2) = molecular target: T6, Brd3(BD2) (Homo sapiens, UniProt Q15059); assay: HTRF BET selectivity profile, Brd3(BD2)
T6 construct: GST tagged bromodomain proteins were purchased from BPS Bioscience; purchased BPS Bioscience
T6 sequence (Q15059 306-415 limits assumed): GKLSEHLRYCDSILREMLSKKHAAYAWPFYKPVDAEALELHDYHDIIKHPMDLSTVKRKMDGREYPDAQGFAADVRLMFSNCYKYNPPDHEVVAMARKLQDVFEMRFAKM
Protocol: as §4, §2, §3

[3] = mean of three experiments, NA = IC50 > 50 μM, read-out: Brd4(8D1) IC50
[4] = triplicates, NA = IC50 > maximal concentration of compound used

Compound	IC50 (Brd3(BD1)) [µM]	Ratio 3-1 vs 3-2 (Brd3(BD1))	IC50 (Brdt(BD1)) [µM]	IC50 (Brd2(BD2); read-out: Brd2(BD2) IC50) [µM]	Kd (BRD4(BD1) [1]) [µM]	IC50 (BRD4(BD1) [2]; [3]) [µM]	IC50 (BRD4(BD1) [2]; [4])	Ratio 4-1 vs 4-2 (BRD4(BD1) [2])	IC50 (Brd2(BD1); read-out: Brd2(BD1) IC50) [µM]	Ratio 2-1 vs 2-2 (Brd2(BD1))	IC50 (Brd4(BD2)) [µM]	IC50 (Brd3(BD2)) [µM]	IC50 (Brd2(BD2)) [µM]	IC50 (Brd2(BD1)) [µM]
CCn1cnc2c1c(=O)[nH]c(=O)n2Cc1ccc(CNS(=O)(=O)c2ccc3c(c2)CCC(=O)N3)cc1 [Compound 27b]	0.94	3	2.15	5.58	–	0.766	0.766 µM	11	3.49	2	8.31	3.03	–	–
CCn1cnc2c1c(=O)[nH]c(=O)n2Cc1ccc(CNS(=O)(=O)c2ccc(N3CCOCC3)cc2)cc1 [Compound 45a]	0.161	10	0.432	1.07	0.06	0.087	0.087 µM	31	0.321	3	2.67	1.64	–	–
CCn1cnc2c1c(=O)[nH]c(=O)n2Cc1ccc(CNS(=O)(=O)c2ccc(OC3CCCCC3)cc2)cc1 [Compound 43a]	0.258	10	0.474	2.26	–	0.202	0.202 µM	22	0.367	>6	4.39	2.44	–	–
CCn1cnc2c1c(=O)[nH]c(=O)n2Cc1ccc(CNC(=O)c2ccc(Cn3cccc3)cc2)cc1 [Compound 33a]	–	–	–	–	20.5	–	0.371 µM	–	–	–	–	–	–	–
CCn1c(CSc2nc3nc(C)cc(C)n3n2)nc2c1c(=O)[nH]c(=O)n2Cc1ccc(CNS(=O)(=O)c2ccc3c(c2)CCCC(=O)N3)cc1 [Compound 32b]	9.6	0.8	9.54	–	–	0.984	0.964 µM and 2.7 µM	29	–	0.9	28	7.27	3.94	4.37
Cc1noc(C)c1CNC(=O)c1ccc(CNS(=O)(=O)c2ccc3c(c2)CCCC(=O)N3)cc1 [Compound 15c]	–	–	–	–	2.2	–	7.8 µM	–	–	–	–	–	–	–
O=C1CCCc2cc(S(=O)(=O)NCC3CCC(C(=O)NCCc4cccs4)CC3)ccc2N1 (single isomer, unassigned) [Compound 5c]	–	–	–	–	2.8	–	7 µM	–	–	–	–	–	–	–
CCn1cnc2c1c(=O)[nH]c(=O)n2Cc1ccc(CNS(=O)(=O)c2ccn(C(C)C)n2)cc1 [Compound 24a]	–	–	–	–	–	–	2.7 µM	–	–	–	–	–	–	–

The remaining lines, values ahead:

IC50 (Brd3(BD1)) [µM]	Ratio 3-1 vs 3-2 (Brd3(BD1))	IC50 (Brdt(BD1)) [µM]	IC50 (Brd2(BD2); read-out: Brd2(BD2) IC50) [µM]	Kd (BRD4(BD1) [1]) [µM]	IC50 (BRD4(BD1) [2]; [3]) [µM]	IC50 (BRD4(BD1) [2]; [4])	Ratio 4-1 vs 4-2 (BRD4(BD1) [2])	IC50 (Brd2(BD1); read-out: Brd2(BD1) IC50) [µM]	Ratio 2-1 vs 2-2 (Brd2(BD1))	IC50 (Brd4(BD2)) [µM]	IC50 (Brd3(BD2)) [µM]	IC50 (Brd2(BD2)) [µM]	IC50 (Brd2(BD1)) [µM]	Compound
22.2	2	9.16	7.11	3.5	9.55	9.6 µM	2	16.1	0.4	20.8	47.2	–	–	O=C1CCCc2cc(S(=O)(=O)C3CCC(C(=O)NCCc4ccccn4)CC3)ccc2N1 (stereo not shown) [Compound 7a]
–	–	–	–	8.8	–	19 µM	–	–	–	–	–	–	–	O=C1CCCc2cc(S(=O)(=O)NCC3CCC(C(=O)NCCc4ccccn4)CC3)ccc2N1 (stereo not shown) [Compound 7b]
8.62	>6	12.5	–	5.8	10.9	11 µM	>5	8.7	>6	–	–	–	–	Cc1noc(C)c1CCNC(=O)c1ccc(CNS(=O)(=O)c2ccc3c(c2)CCCC(=O)N3)cc1 [Compound 16a]
5.05	>10	9.17	33.9	3.4	15.7	16 µM	>3	10.3	3	–	–	–	–	Cc1noc(C)c1CCNC(=O)C1CCC(CNS(=O)(=O)c2ccc3c(c2)CCCC(=O)N3)CC1 (stereo not shown) [Compound 9a]

— patent US11180510B2, “Xanthine derivatives and uses thereof as inhibitors of bromodomains of BET proteins” (Centre national de la recherche scientifique, priority 2017, dated 2021)
